Assay results: ChEMBL document CHEMBL4680328, “Design, synthesis and evaluation of PD-L1 peptide antagonists as new anticancer agents for immunotherapy” (Bioorg Med Chem, 2021)
Active and inactive are the calls of the source. The rule behind the calls is not given here.

Key:
[1] = Toxicity in BALB/c mouse xenografted with mouse CT26 cells assessed as effect on spleen damage at 10 mg/kg, ip administered for 7 days and measured on day 7 by hematoxylin and eosin staining based assay; type: organism-based; settings: in vivo, 168 h, time 7 day
CT26 [2] = assay: Antitumor activity against mouse CT26 cells xenografted in BALB/c mouse assessed as reduction in tumor growth at 10 mg/kg, ip administered for 7 days and measured on day 7 by caliper analysis; type: functional, organism-based; settings: time 7.0 day
[3] = target: T1, Programmed cell death 1 ligand 1 (Homo sapiens, UniProt Q9NZQ7); assay: Antagonist activity at PDL1 overexpressing in IFN-gamma pretreated human LoVo cells assessed as restoration of human Jurkat T cell activation by measuring induction of IL-2 production at 10 ug/ml incubated for 24 hrs by ELISA; settings: filed as antagonist, dose 10.0 µg/ml
T1 sequence (Q9NZQ7 whole entry): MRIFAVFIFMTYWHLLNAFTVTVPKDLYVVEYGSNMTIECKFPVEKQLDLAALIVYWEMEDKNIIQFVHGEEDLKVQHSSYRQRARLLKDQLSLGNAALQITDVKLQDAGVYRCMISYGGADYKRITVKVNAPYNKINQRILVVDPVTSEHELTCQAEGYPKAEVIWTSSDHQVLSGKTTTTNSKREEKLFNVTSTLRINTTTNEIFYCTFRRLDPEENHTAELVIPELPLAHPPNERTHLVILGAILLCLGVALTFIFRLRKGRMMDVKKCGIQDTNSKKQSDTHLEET

[4] = Toxicity in BALB/c mouse xenografted with mouse CT26 cells assessed as GPT level in blood at 10 mg/kg, ip administered for 7 days and measured on day 7 (reference value: 50 +/- 7 U/L); type: organism-based; settings: in vivo, 168 h, time 7 day
[5] = Toxicity in BALB/c mouse xenografted with mouse CT26 cells assessed as BUN level in blood at 10 mg/kg, ip administered for 7 days and measured on day 7 (reference value: 76 +/- 5 mg/dl); type: organism-based; settings: in vivo, 168 h, time 7 day
[6] = Toxicity in BALB/c mouse xenografted with mouse CT26 cells assessed as GOT level in blood at 10 mg/kg, ip administered for 7 days and measured on day 7 (reference value: 93 +/- 8 U/L); type: organism-based; settings: in vivo, 168 h, time 7 day
CT26 [7] = assay: Antitumor activity against mouse CT26 cells assessed as reduction in cell viability at 10 to 100 ug/ml incubated for 24 to 72 hrs by MTT assay; type: functional, cell-based; settings: dose 10-100 µg/ml, time 24-72 hrs
[8] = Toxicity in BALB/c mouse xenografted with mouse CT26 cells assessed as effect on liver damage at 10 mg/kg, ip administered for 7 days and measured on day 7 by hematoxylin and eosin staining based assay; type: organism-based; settings: in vivo, 168 h, time 7 day
[9] = target: T1, Programmed cell death 1 ligand 1; assay: Antagonist activity at human PDL1 assessed as inhibition of human PD1 interaction with human PDL1 by ELISA
[10] = Toxicity in BALB/c mouse xenografted with mouse CT26 cells assessed as reduction in body weight at 10 mg/kg, ip administered for 7 days and measured on day 7; type: organism-based; settings: in vivo, 168 h, time 7 day
[11] = Toxicity in BALB/c mouse xenografted with mouse CT26 cells assessed as effect on kidney damage at 10 mg/kg, ip administered for 7 days and measured on day 7 by hematoxylin and eosin staining based assay; type: organism-based; settings: in vivo, 168 h, time 7 day

Compound	Activity [1]	TGI (CT26 [2])	IL-2 induction activity [3]	Activity [4] [U/L]	Activity [5] [mg/dL]	Activity [6] [U/L]	Activity (CT26 [7])	Activity [8]	IC50 [9] [µM]	Activity [10]	Activity [11]
CC[C@H](C)[C@H](NC(=O)[C@H](C)NC(=O)CN)C(=O)N[C@@H](CO)C(=O)N[C@@H](CC(C)C)C(=O)N[C@@H](C)C(=O)N1CCC[C@H]1C(=O)N[C@@H](CCCCN)C(=O)N[C@@H](CC(C)C)C(=O)N[C@@H](CCC(N)=O)C(=O)N[C@H](C(=O)N[C@@H](CC(N)=O)C(=O)N[C@H](CCC(=O)O)C(=O)O)[C@@H](C)CC	Non-Toxic	Active	Active	54	69	82	inactive	Non-Toxic	1.56	Non-Toxic	Non-Toxic
CC[C@H](C)[C@@H]1NC(=O)[C@H](C)NC(=O)CNC(=O)CNC(=O)[C@@H](CCC(=O)O)NC(=O)[C@H](CC(N)=O)NC(=O)[C@H]([C@@H](C)CC)NC(=O)[C@H](CCC(N)=O)NC(=O)[C@H](CC(C)C)NC(=O)[C@H](CCCCN)NC(=O)[C@@H]2CCCN2C(=O)[C@H](C)NC(=O)[C@H](CC(C)C)NC(=O)[C@H](CO)NC1=O	Non-Toxic	Active	Active	51	81	97	inactive	Non-Toxic	0.71	Non-Toxic	Non-Toxic
H-CGAISLAPKLQINES-OH									80.7		
H-CGAISLAPKLQIKES-OH									93.5		
H-CGAISLAPKAQIKES-OH									19.2		
CC[C@H](C)[C@H](NC(=O)[C@H](C)NC(=O)CN)C(=O)N[C@@H](CO)C(=O)N[C@@H](CC(C)C)C(=O)N[C@@H](C)C(=O)N1CCC[C@H]1C(=O)N[C@@H](CCCCN)C(=O)N[C@@H](CC(C)C)C(=O)N[C@@H](CCC(N)=O)C(=O)N[C@H](C(=O)N[C@@H](CC(N)=O)C(=O)N[C@@H](CCC(=O)O)C(=O)O)[C@@H](C)CC		inactive	Active				inactive		5.6	Non-Toxic	
H-GAISLAPKLQIND-OH		inactive	Active				inactive		4.4	Non-Toxic	
